Assay results published in patent US10710996B2, “Pyrido-azaheterecydic compound and preparation method and use thereof” (SHANGHAI INSTITUTE OF MATERIA MEDICA, CHINESE ACADEMY OF …, priority 2015, dated 2020).

Tests used:
[1] = target: T1, c-Met kinase (Homo sapiens, UniProt P08581); test: Inhibitory effect on c-Met kinase activity at molecular level (ELISA); type: biochemical;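 further: recombinant c-Met kinase domain with 5 µM ATP, 1 h at 37 °C, substrate phosphorylation detected by anti-phosphotyrosine PY99 ELISA at 490 nm versus DMSO negative control, ATP-free wells as blank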
T1 construct: c-Met kinase domain recombinant protein diluted with 49 μL of the reaction buffer was added
Description: Experiment for Preliminarily Evaluating the Inhibitory Effect on the Activity of Receptor Tyrosine Kinase c-Met at Molecular Level
After discarding the liquid in the wells, the plate was washed with T-PBS (0.1% Tween-20 in PBS) in an amount of 200 μL/well three times, each for 5 minutes. The ELISA plate was dried in an oven at 37° C. for 1-2 hours. 50 μl of adenosine triphosphate (ATP) solution diluted with reaction buffer (50 mM 4-hydroxyethylpiperazine ethanesulfonic acid (HEPES) pH 7.4, 50 mM MgCl2, 0.5 mM MnCl2, 0.2 mM Na3VO4, 1 mM dithiothreitol (DTT)) to a final concentration of 5 μM was added to each well. The compounds were diluted to an appropriate concentration with DMSO (1 μL/well) or a solution containing DMSO in a corresponding concentration (negative control well), and then c-Met kinase domain recombinant protein diluted with 49 μL of the reaction buffer was added therein to initiate the reaction, with two ATP-free control wells for each test. The plate was placed in a shaker (100 rpm) at 37° C. for reacting 1 hour, and washed with T-PBS three times. Primary antibody PY99 diluent was added in an amount of 100 μL/well to allow the reaction in a shaker at 37° C. for 0.5 hour, and then the plate was washed with T-PBS three times. Then the secondary antibody horseradish peroxidase labeled goat anti-mouse IgG diluent was added in an amount of 100 μL/well, and the plate was placed in a shaker at 37° C. for reacting 0.5 hour, and then washed with T-PBS three times. 2 mg/ml of o-phenylenediamine (OPD) coloring solution (diluted with 0.1 M citric acid-sodium citrate buffer (pH=5.4) containing 0.03% H2O2) was then added at 100 μL/well and reacted at 25° C. for 1-10 min with light blocked (ultrasound was required to dissolve OPD, the coloring solution was prepared when needed). The reaction was stopped by adding 2 M of H2SO4 in an amount of 50 μL/well, and a wavelength-adjustable microplate reader SPECTRA MAX 190 was read at 490 nm.
The inhibition rate of the sample was calculated by the following equation:

[2] = system: EBC-1 cells; test: Inhibition of c-Met-mediated EBC-1 cell proliferation (SRB staining); type: cell-based; settings: Homo sapiens, 72 hours treatment
Description: The inhibitory effect of the compounds on the growth of non-small cell cancer EBC-1 cell (a cell line in which Met is continually activated due to the amplification of MET gene, and is a Met-dependent tumor cell line) was measured by sulforhodamine B (SRB) staining assay. A certain amount of EBC-1 cells in their logarithmic growth phase were seeded in 96-well plates at 90 μL per well and cultured overnight, then 10 μL of different concentrations of compounds or solvent control were added thereto, three wells for each concentration. After treated by the compound for 72 hours, the adherent cells were removed of culture medium and fixed with 10% (w/v) trichloroacetic acid (100 μL/well) at 4° C. for 1 hr followed by rinsing with distilled water five times. After drying at room temperature, 100 μL of SRB solution (dissolved in 1% glacial acetic acid at 4 mg/mL) was added to each well to incubate and stain the cells for 15 min at room temperature, then unbound SRB was washed off with 1% glacial acetic acid for five times. After drying at room temperature, 100 μL of 10 mM Tris solution was added to each well. The optical density (OD value) at 515 nm was read on a VERSMax microplate reader. […] The experiment was repeated twice. The IC50 data was calculated as a range based on the test results of concentrations set in the initial screening test.

T1 sequence (P08581 1078-1345 limits assumed): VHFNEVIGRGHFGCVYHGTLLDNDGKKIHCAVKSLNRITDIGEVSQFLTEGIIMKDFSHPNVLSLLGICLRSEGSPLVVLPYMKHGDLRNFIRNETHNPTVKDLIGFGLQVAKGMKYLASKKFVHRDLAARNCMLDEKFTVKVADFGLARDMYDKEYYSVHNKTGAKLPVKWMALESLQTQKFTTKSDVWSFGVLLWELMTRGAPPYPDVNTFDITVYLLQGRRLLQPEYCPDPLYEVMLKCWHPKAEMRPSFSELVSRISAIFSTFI

| Compound | IC50 [1] | IC50 [2] |
| --- | --- | --- |
| O=C(Nc1ccc(Oc2ccnc3cc(OCCN4CCOCC4)ncc23)c(F)c1)c1c[nH]cc(-c2ccc(F)cc2)c1=O [Compound 22S, N-(3-fluoro-4-((7-(2-morpholinoethoxy)-1,6-naphthyridin-4-yl)oxy)phenyl)-5-(4-fluorophenyl)-4-oxo-1,4-dihydropyridine-3-carboxamide] | 1 to 10 nM | 10 to 100 nM |
| CS(=O)(=O)n1cc(-c2cc3nccc(Oc4ccc(NC(=O)C5(C(=O)Nc6ccc(F)cc6)CC5)cc4F)c3cn2)cn1 [Compound 40S, N-(3-fluoro-4-((7-(1-(methylsulfonyl)-1H-pyrazol-4-yl)-1,6-naphthyridin-4-yl)oxy)phenyl)-N-(4-fluorophenyl) cyclopropyl-1,1-dicarboxamide] | 1 to 10 nM | 10 to 100 nM |
| O=C(Nc1ccc(F)cc1)C1(C(=O)Nc2ccc(Oc3ccnc4ncc(Cl)nc34)c(F)c2)CC1 [Compound 56S] | 100 to 1000 nM | 1000 to 10000 nM |
| O=C(Nc1ccc(F)cc1)C1(C(=O)Nc2ccc(Oc3ccnc4cc(-c5ccncc5)ncc34)c(F)c2)CC1 [Compound 46S, N-(3-fluoro-4-((7-(pyridin-4-yl)-1,6-naphthyridin-4-yl)oxy)phenyl)-N-(4-fluorophenyl)cyclopropyl-1,1-dicarboxamide] | 1 to 10 nM | 100 to 1000 nM |
| O=C(Nc1ccc(F)cc1)C1(C(=O)Nc2ccc(Oc3ccnc4cc(Cn5ccnc5)ncc34)c(F)c2)CC1 [Compound 44S, N-(4-((7-((1H-imidazol-1-yl)methyl)-1,6-naphthyridin-4-yl)oxy)-3-fluorophenyl)-N-(4-fluorophenyl)cyclopropyl-1,1-dicarboxamide] | 10 to 100 nM | 100 to 1000 nM |
| O=C(Nc1ccc(F)cc1)C1(C(=O)Nc2ccc(Oc3ccnc4ncc(OCCCN5CCOCC5)nc34)c(F)c2)CC1 [Compound 68S, N-(3-fluoro-4-((2-(3-morpholinopropoxy)pyrido[2,3-b]pyrazin-8-yl)oxy)phenyl)-N-(4-fluorophenyl)cyclopropyl-1,1-dicarboxamide] | 1000 to 10000 nM | 1000 to 10000 nM |
| O=C(Nc1ccc(Oc2ccnc3cc(OCCN4CCOCC4)ncc23)c(F)c1)c1c[nH]cc(-c2ccccc2)c1=O [Compound 20S, N-(3-fluoro-4-((7-(2-morpholinoethoxy)-1,6-naphthyridin-4-yl)oxy)phenyl)-4-oxo-5-phenyl-1,4-dihydropyridine-3-carboxamide] | 1 to 10 nM | 10 to 100 nM |
| COc1cc2nccc(Oc3ccc(NC(=O)C4(C(=O)Nc5ccc(F)cc5)CC4)cc3F)c2cn1 [Compound 3S, N-(4-((7-methoxy-1,6-naphthyridin-4-yl)oxy)-3-fluorophenyl)-N-(4-fluorophenyl)cyclopropyl-1,1-dicarboxamide] | 1 to 10 nM | 100 to 1000 nM |
| O=C(Nc1ccc(F)cc1)C1(C(=O)Nc2ccc(Oc3ccnc4nc(Cl)cnc34)c(F)c2)CC1 [Compound 55S, N-(4-((3-chloropyrido[2,3-b]pyrazin-8-yl)oxy)-3-fluorophenyl)-N-(4-fluorophenyl)cyclopropyl-1,1-dicarboxamide] | 10 to 100 nM | 1000 to 10000 nM |
| O=C1COCCN1CCOc1cc2nccc(Oc3ccc(NC(=O)C4(C(=O)Nc5ccc(F)cc5)CC4)cc3F)c2cn1 [Compound 37S, N-(3-fluoro-4-((7-(2-(3-oxomorpholino)ethoxy)-1,6-naphthyridin-4-yl)oxy)phenyl)-N-(4-fluorophenyl) cyclopropyl-1,1-dicarboxamide] | 1 to 10 nM | 10 to 100 nM |
| CN1CCN(CCOc2cc3nccc(Oc4ccc(NC(=O)C5(C(=O)Nc6ccc(F)cc6)CC5)cc4F)c3cn2)CC1 [Compound 11S, N-(3-fluoro-4-((7-(2-(4-methylpiperazin-1-yl)ethoxy)-1,6-naphthyridin-4-yl)oxy)phenyl)-N-(4-fluorophenyl) cyclopropyl-1,1-dicarboxamide] | 1 to 10 nM | 100 to 1000 nM |
| COc1cc(NC(=O)C2(C(=O)Nc3ccc(Oc4ccnc5cc(OCCN6CCOCC6)ncc45)c(F)c3)CC2)ccc1F [Compound 24S, N-(4-fluoro-3-methoxyphenyl)-N-(3-fluoro-4-((7-(2-morpholinoethoxy)-1,6-naphthyridin-4-yl)oxy)phenyl) cyclopropyl-1,1-dicarboxamide] | 1 to 10 nM | 100 to 1000 nM |
| O=C(Nc1ccc(F)cc1)C1(C(=O)Nc2ccc(Oc3ccnc4cc(-c5cncnc5)ncc34)c(F)c2)CC1 [Compound 47S, N-(3-fluoro-4-((7-(pyrimidin-5-yl)-1,6-naphthyridin-4-yl)oxy)phenyl)-N-(4-fluorophenyl)cyclopropyl-1,1-dicarboxamide] | 1 to 10 nM | 10 to 100 nM |
| CN1CCN(c2cnc3c(Oc4ccc(NC(=O)C5(C(=O)Nc6ccc(F)cc6)CC5)cc4F)ccnc3n2)CC1 [Compound 59S, N-(3-fluoro-4-((3-(4-methylpiperazin-1-yl)pyrido[2,3-b]pyrazin-8-yl)oxy)phenyl)-N-(4-fluorophenyl)cyclopropyl-1,1-dicarboxamide] | 1 to 10 nM | 100 to 1000 nM |
| O=C(Nc1ccc(Oc2ccnc3cc(OCCN4CCOCC4)ncc23)c(F)c1)c1cccn(-c2ccc(F)cc2)c1=O [Compound 15S, N-(3-fluoro-4-((7-(2-morpholinoethoxy)-1,6-naphthyridin-4-yl)oxy)phenyl)-1-(4-fluorophenyl)-2-oxo-1,2-dihydropyridine-3-carboxamide] | 1 to 10 nM | 10 to 100 nM |
| O=C(Nc1ccc(F)cc1)C1(C(=O)Nc2ccc(Oc3ccnc4cc(Cl)ncc34)c(F)c2)CC1 [Compound 1S, N-(4-((7-chloro-1,6-naphthyridin-4-yl)oxy)-3-fluorophenyl)-N-(4-fluorophenyl) cyclopropyl-1,1-dicarboxamide] | 1000 to 10000 nM | 100 to 1000 nM |
| CC(C)n1cc(-c2cc3nccc(Oc4ccc(NC(=O)C5(C(=O)Nc6ccc(F)cc6)CC5)cc4F)c3cn2)cn1 [Compound 41S, N-(3-fluoro-4-((7-(1-isopropyl-1H-pyrazol-4-yl)-1,6-naphthyridin-4-yl)oxy)phenyl)-N-(4-fluorophenyl) cyclopropyl-1,1-dicarboxamide] | 1 to 10 nM | 1 to 10 nM |
| O=C(Nc1ccc(F)cc1)C1(C(=O)Nc2ccc(Oc3ccnc4nc(NCCCN5CCOCC5)cnc34)c(F)c2)CC1 [Compound 62S, N-(3-fluoro-4-((3-((3-morpholinopropyl)amino)pyrido[2,3-b]pyrazin-8-yl)oxy)phenyl)-N-(4-fluorophenyl) cyclopropyl-1,1-dicarboxamide] | 10 to 100 nM | 1000 to 10000 nM |
| O=C(Nc1ccc(F)cc1)C1(C(=O)Nc2ccc(Oc3ccnc4ncc(N5CCNCC5)nc34)c(F)c2)CC1 [Compound 65S, N-(4-((2-piperazinyl-pyrido[2,3-b]pyrazin-8-yl)oxy)-3-fluorophenyl)-N-(4-fluorophenyl)cyclopropyl-1,1-dicarboxamide] | 1000 to 10000 nM | 1000 to 10000 nM |
| O=C(Nc1ccc(F)c(F)c1)C1(C(=O)Nc2ccc(Oc3ccnc4cc(OCCN5CCOCC5)ncc34)c(F)c2)CC1 [Compound 23S, N-(3,4-difluorophenyl)-N-(3-fluoro-4-((7-(2-morpholinoethoxy)-1,6-naphthyridin-4-yl)oxy)phenyl) cyclopropyl-1,1-dicarboxamide] | 1 to 10 nM | 100 to 1000 nM |
| Cn1cc(-c2cc3nccc(Oc4ccc(NC(=O)c5c[nH]cc(-c6ccc(F)cc6)c5=O)cc4F)c3cn2)cn1 [Compound 54S, N-(3-fluoro-4-((7-(1-methyl-1H-pyrazol-4-yl)-1,6-naphthyridin-4-yl)oxy)phenyl)-5-(4-fluorophenyl)-4-oxo-1,4-dihydropyridine-3-carboxamide] | 1 to 10 nM | 10 to 100 nM |
| O=C(Nc1ccc(F)cc1)C1(C(=O)Nc2ccc(Oc3ccnc4ncc(N5CCOCC5)nc34)c(F)c2)CC1 [Compound 58S] | 100 to 1000 nM | 1000 to 10000 nM |
| O=C(Nc1ccc(F)cc1)C1(C(=O)Nc2ccc(Oc3ccnc4ncc(NCCCN5CCOCC5)nc34)c(F)c2)CC1 [Compound 63S, N-(3-fluoro-4-((2-((3-morpholinopropyl)amino)pyrido[2,3-b]pyrazin-8-yl)oxy)phenyl)-N-(4-fluorophenyl) cyclopropyl-1,1-dicarboxamide] | 1 to 10 nM | 1000 to 10000 nM |
| CN1CCC(COc2cc3nccc(Oc4ccc(NC(=O)C5(C(=O)Nc6ccc(F)cc6)CC5)cc4F)c3cn2)CC1 [Compound 9S, N-(3-fluoro-4-((7-((1-methylpiperidin-4-yl)methoxy)-1,6-naphthyridin-4-yl)oxy)phenyl)-N-(4-fluorophenyl) cyclopropyl-1,1-dicarboxamide] | 1 to 10 nM | 10 to 100 nM |
| O=C(Nc1ccc(F)cc1)C1(C(=O)Nc2ccc(Oc3ccnc4nc(OCCN5CCOCC5)cnc34)c(F)c2)CC1 [Compound 60S, N-(3-fluoro-4-((3-(2-morpholinoethoxy)pyrido[2,3-b]pyrazin-8-yl)oxy)phenyl)-N-(4-fluorophenyl)cyclopropyl-1,1-dicarboxamide] | 10 to 100 nM | 1000 to 10000 nM |
| O=C(Nc1ccc(F)cc1)C1(C(=O)Nc2ccc(Oc3ccnc4cc(-c5cnn(C6CCNCC6)c5)ncc34)c(F)c2)CC1 [Compound 42S, N-(3-fluoro-4-((7-(1-(piperidin-4-yl)-1H-pyrazol-4-yl)-1,6-naphthyridin-4-yl)oxy)phenyl)-N-(4-fluorophenyl) cyclopropyl-1,1-dicarboxamide] | 1 to 10 nM | 1 to 10 nM |
